Key:
NCI-N87 cells = assay: Inhibition of cell proliferation, CTG method, NCI-N87; assay type: cell-based; conditions: Homo sapiens, 72 hours, read-out: hNCI-N87 IC50
From the text: (§1) The present application examined the in vitro anti-proliferative activity of the compounds of the present disclosure against in vitro cultured BT474, NCI-N87, Ba/F3-EGFR-VIII and Ba/F3 HER2 A775_G776insYVMA and Ba/F3 EGFR D770_N771insSVD cell lines by CTG method.
(§2) Reagents and consumables: RPMI1640 (ThermoFisher, Cat. No. C11875500BT); fetal bovine serum (Hyclone, Cat. No. SV30087.03); 0.25% trypsin-EDTA (ThermoFisher, Cat. No. 25200-072); penicillin-streptomycin (Hyclone, Cat. No. SV30010); DMSO (Amresco, Cat. No. 0231-500ML); CTG assay kit (Promega, Cat. No. G924C); 96-well plate (Corning, Cat. No. 3603); multifunctional plate reader (Perkin Elmer, Cat. No. Envision)
(§3) Cell lines: BT474 (from the cell bank of Chinese Academy of Sciences), NCI-N87 (from ATCC), Ba/F3-EGFR-VIII, Ba/F3 HER2 A775_G776insYVMA and Ba/F3 EGFR D770_N771insSVD (all from KYinno Biotechnology (Beijing) Co., Ltd.); all of the above cells were cultured with RPMI1640 medium containing 10% fetal bovine serum, 100 U/mL penicillin, and 100 μg/mL streptomycin in the culture process.
1. The assay compound was dissolved with DMSO to form a stock solution and a gradient dilution was performed, followed by dilution with the corresponding medium to obtain a solution with 5-fold working concentration.
2. Cells in logarithmic growth phase were adjusted to specific cell densities by dilution with culture medium, and 80 μL of cell suspension was added to a 96-well plate, such that plating densities of cells of BT474, NCI-N87, Ba/F3-EGFR-VIII, Ba/F3 HER2 A775_G776insYVMA and Ba/F3 EGFR D770_N771insSVD were all 3000 cells/well. The cells of Ba/F3-EGFR-VIII, Ba/F3 HER2 A775_G776insYVMA and Ba/F3 EGFR D770_N771insSVD were used directly in the next step (treatment with compound), whereas the BT474 and NCI-N87 needed to be cultured overnight in a 37° C., 5% carbon dioxide gas incubator to adhere to the wall, and then treated with compounds.
3. 20 μL of compound solution was added to each well of the 96-well plate that had been inoculated with cells. The highest concentration of the assayed compound was 10 μM, 4-fold serial dilution, a total of 9 concentrations, and duplicate wells. A control group without compound was also set up.
(§4) 4. The cells were cultured for another 72 hours, and then cell viability was detected by CTG assay kit. Signal values were read with a multifunctional plate reader (Perkin Elmer). GraphPad Prism software was used to create a dose-response curve and IC50 was calculated.

BT474 cells = assay: Inhibition of cell proliferation, CTG method, BT474; assay type: cell-based; conditions: Homo sapiens, BT-474, 72 hours, read-out: hBT474 IC50
From the text: as §1, §2, §3
1. […]
as §4

- IC50 (BT474 cells): 5 to 10 nM
Compound: COc1c(NC(=O)/C=C/[C@H]2CCCN2C)ccc2ncnc(Nc3ccc(OCc4ccccn4)c(Cl)c3)c12 [Example 4, (R,E)-N-(4-((3-chloro-4-(pyridin-2-ylmethoxy)phenyl)amino)-5-methoxyquinazolin-6-yl)-3-(1-methylpyrrolidin-2-yl)acrylamide]
- IC50 (NCI-N87 cells): < 1 nM

Source: patent publication US20240246934A1, “QUINAZOLINE-BASED COMPOUND, COMPOSITION, AND APPLICATION OF QUINAZOLINE-BASED COMPOUND” (BEIJING SCITECH-MQ PHARMACEUTICALS LIMITED, priority 2021, published 2024)
